Assay results as given in ChEMBL document CHEMBL1128019, “Gem-disubstituted amino-ether based substance p antagonists” (Bioorg Med Chem Lett, 1994).

Molecular target: Substance-P receptor (Homo sapiens, UniProt P25103)
Test: Binding affinity for human NK1 receptor expressed in CHO cells
Type: cell-based

Sequence of Substance-P receptor (P25103 whole entry): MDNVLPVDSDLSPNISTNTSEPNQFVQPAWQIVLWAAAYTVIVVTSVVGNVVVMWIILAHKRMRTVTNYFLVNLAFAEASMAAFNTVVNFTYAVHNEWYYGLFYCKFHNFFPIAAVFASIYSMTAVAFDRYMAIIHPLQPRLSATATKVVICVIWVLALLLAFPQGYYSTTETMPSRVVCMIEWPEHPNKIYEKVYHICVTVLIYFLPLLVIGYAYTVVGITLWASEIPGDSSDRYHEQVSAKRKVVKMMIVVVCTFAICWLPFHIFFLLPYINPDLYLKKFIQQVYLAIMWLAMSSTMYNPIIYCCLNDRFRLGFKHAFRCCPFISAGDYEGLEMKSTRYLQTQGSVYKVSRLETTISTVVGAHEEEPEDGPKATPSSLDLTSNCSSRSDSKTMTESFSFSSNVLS

FC(F)(F)c1cc(COC[C@]2(c3ccccc3)CCCCN2)cc(C(F)(F)F)c1
IC50: 1 nM

FC(F)(F)c1cc(COC[C@]2(c3ccccc3)CCCN2)cc(C(F)(F)F)c1
IC50: 20 nM
